From ChEMBL document CHEMBL5537170, “Design, Synthesis, and Anti-Osteoporotic Characterization of Arginine N-Glycosylated Teriparatide Analogs via the Silver-catalyzed Solid-Phase Glycosylation Strategy” (J Med Chem, 2024)
Blank lines part the entries; values can stand above or below the compound they belong to. Activity calls are given as the source filed them. The rule behind the calls is not given here.

Tests used:
[1] = Stability in human serum assessed as compound remaining at 1 mg/ml measured after 12 hrs by HPLC analysis; format: ADME, cell-free; details: read-out: Stability
[2] = Cytotoxicity against C57BL/6 mouse Pre-Osteoblast cells assessed as cell death upto 5 uM incubated for 4 days by CCK-8 assay; format: toxicity, cell-based; details: 96 h, time 4 day
[3] = tested on: Pre-Osteoblast; test: Induction of osteoblast differentiation in C57BL/6 mouse Pre-Osteoblast cells assessed as increase in bone mineralization by measuring increase in red calcium nodules measured after 14 days by Alizarin Red S staining based analysis; format: functional, cell-based; details: time 14.0 day
[4] = tested on: Pre-Osteoblast; test: Induction of osteoblast differentiation in C57BL/6 mouse Pre-Osteoblast cells assessed as increase in ALP expression by measuring increase in ALP-positive cells with purple color at 50 nM measured after 2 days by ALP staining based analysis; format: functional, cell-based; details: time 2.0 day
[5] = Induction of osteoblast differentiation in C57BL/6 mouse Pre-Osteoblast cells assessed as fold increase in ephrinB2 protein expression at 100 nM measured after 72 hrs by Western blot analysis relative to control; format: functional
[6] = tested on: Pre-Osteoblast; test: Induction of osteoblast differentiation in C57BL/6 mouse Pre-Osteoblast cells assessed as upregulation of ALP gene expression measured on day 4 and 7 by qPCR analysis; format: functional, cell-based; details: time 4-7 day
[7] = tested on: Mus musculus; test: Anti-osteoporosis activity in ovariectomized C57BL/6J mouse model assessed as increase in trabecular number in femur at 20 microg/kg, sc administered 3 times a week for 8 weeks by micro-CT analysis; format: functional, organism-based; details: dose 20.0 µg/kg
[8] = tested on: Pre-Osteoblast; test: Induction of osteoblast differentiation in C57BL/6 mouse Pre-Osteoblast cells assessed as upregulation of Runx2 gene expression measured on day 4 and 7 by qPCR analysis; format: functional, cell-based; details: time 4-7 day
[9] = tested on: Pre-Osteoblast; test: Induction of osteoblast differentiation in C57BL/6 mouse Pre-Osteoblast cells assessed as increase in bone mineralization by measuring increase in area of calcium nodules measured after 14 days by Alizarin Red S staining based analysis; format: functional, cell-based; details: time 14.0 day
[10] = tested on: Mus musculus; test: Anti-osteoporosis activity in ovariectomized C57BL/6J mouse model assessed as increase in bone volume percent in femur at 20 microg/kg, sc administered 3 times a week for 8 weeks by micro-CT analysis; format: functional, organism-based; details: dose 20.0 µg/kg
[11] = tested on: Pre-Osteoblast; test: Induction of osteoblast differentiation in C57BL/6 mouse Pre-Osteoblast cells assessed as upregulation of OCN gene expression measured on day 4 and 7 by qPCR analysis; format: functional, cell-based; details: time 4-7 day
[12] = Induction of osteoblast differentiation in C57BL/6 mouse Pre-Osteoblast cells assessed as fold increase in ephrinB2 protein expression at 50 nM measured after 72 hrs by Western blot analysis relative to control; format: functional
[13] = tested on: Mus musculus; test: Anti-osteoporosis activity in ovariectomized C57BL/6J mouse model assessed as increase in bone surface density in femur at 20 microg/kg, sc administered 3 times a week for 8 weeks by micro-CT analysis; format: functional, organism-based; details: dose 20.0 µg/kg
[14] = Induction of osteoblast differentiation in C57BL/6 mouse Pre-Osteoblast cells assessed as fold increase in ephrinB2 protein expression at 200 nM measured after 72 hrs by Western blot analysis relative to control; format: functional
[15] = Stability in human serum assessed as compound degradation at 1 mg/ml measured after 12 hrs by HPLC analysis; format: ADME, cell-free; details: read-out: Drug degradation

- remaining at 12 h, 1 mg/ml [1]: > 75%
Compound: CC[C@H](C)[C@H](NC(=O)[C@H](CCC(=O)O)NC(=O)[C@H](CO)NC(=O)[C@@H](NC(=O)[C@H](CO)NC(C)=O)C(C)C)C(=O)N[C@@H](CCC(N)=O)C(=O)N[C@@H](CC(C)C)C(=O)N[C@@H](CCSC)C(=O)N[C@@H](Cc1cnc[nH]1)C(=O)N[C@@H](CC(N)=O)C(=O)N[C@@H](CC(C)C)C(=O)NCC(=O)N[C@@H](CCCCN)C(=O)N[C@@H](Cc1cnc[nH]1)C(=O)N[C@@H](CC(C)C)C(=O)N[C@@H](CC(N)=O)C(=O)N[C@@H](CO)C(=O)N[C@@H](CCSC)C(=O)N[C@@H](CCC(=O)O)C(=O)N[C@@H](CCCNC(=N)N)C(=O)N[C@H](C(=O)N[C@@H](CCC(=O)O)C(=O)N[C@@H](Cc1c[nH]c2ccccc12)C(=O)N[C@@H](CC(C)C)C(=O)N[C@@H](CCCNC(=N)N[C@@H]1O[C@H](CO)[C@@H](O[C@H]2O[C@H](CO)[C@@H](O)[C@H](O)[C@H]2O)[C@H](O)[C@H]1O)C(=O)N[C@@H](CCCCN)C(=O)N[C@@H](CCCCN)C(=O)N[C@@H](CC(C)C)C(=O)N[C@@H](CCC(N)=O)C(=O)N[C@@H](CC(=O)O)C(=O)N[C@H](C(=O)N[C@@H](Cc1cnc[nH]1)C(=O)N[C@@H](CC(N)=O)C(=O)N[C@@H](Cc1ccccc1)C(N)=O)C(C)C)C(C)C
- Activity [2]: Non-Toxic
- Activity [3]: Active
- Activity [4]: Active
- fold change (FC) [5]: 1.34
- Activity [6]: Active
- Activity [7]: Active
- Activity [8]: Active
- Activity [9]: Active
- Activity [10]: Active
- Activity [11]: Active
- fold change (FC) [12]: 1.16
- Activity [13]: Active
- fold change (FC) [14]: 1.32

- metabolised at 12 h, 1 mg/ml [15]: > 50%
Compound: CC[C@H](C)[C@H](NC(=O)[C@H](CCC(=O)O)NC(=O)[C@H](CO)NC(=O)[C@@H](NC(=O)[C@H](CO)NC(C)=O)C(C)C)C(=O)N[C@@H](CCC(N)=O)C(=O)N[C@@H](CC(C)C)C(=O)N[C@@H](CCSC)C(=O)N[C@@H](Cc1cnc[nH]1)C(=O)N[C@@H](CC(N)=O)C(=O)N[C@@H](CC(C)C)C(=O)NCC(=O)N[C@@H](CCCCN)C(=O)N[C@@H](Cc1cnc[nH]1)C(=O)N[C@@H](CC(C)C)C(=O)N[C@@H](CC(N)=O)C(=O)N[C@@H](CO)C(=O)N[C@@H](CCSC)C(=O)N[C@@H](CCC(=O)O)C(=O)N[C@@H](CCCNC(=N)N)C(=O)N[C@H](C(=O)N[C@@H](CCC(=O)O)C(=O)N[C@@H](Cc1c[nH]c2ccccc12)C(=O)N[C@@H](CC(C)C)C(=O)N[C@@H](CCCNC(=N)N)C(=O)N[C@@H](CCCCN)C(=O)N[C@@H](CCCCN)C(=O)N[C@@H](CC(C)C)C(=O)N[C@@H](CCC(N)=O)C(=O)N[C@@H](CC(=O)O)C(=O)N[C@H](C(=O)N[C@@H](Cc1cnc[nH]1)C(=O)N[C@@H](CC(N)=O)C(=O)N[C@@H](Cc1ccccc1)C(N)=O)C(C)C)C(C)C
- Activity [2]: Non-Toxic
- fold change (FC) [5]: 1.05
- fold change (FC) [12]: 1.04
- fold change (FC) [14]: 1.23
